# Read-outs that look alike come from different tables or passages of the source.
# Test system: HBV viral load production from HepAD38 cells
# Assay: Viral production from HepAD38 cells: viral load in supernatant by qPCR of the HBV core sequence
# Format: cell-based
# Details: 5 days incubation, qPCR of supernatant HBV DNA vs DMSO control, read-out: viral load lowering EC50 (Activity)
# Experimental: Assay Measuring Activity of Test Compounds on Viral Production from HepAD38 Cells
# HepAD38 cells grown in a T-150 flask (Corning, cat #: 430825) with Growth Medium (DMEM/F12 […] (Hyclone, cat #: SH30023.02), 1× Pen/Strep (Invitrogen, cat #: 15140-122), 10% FBS (Tissue Culture Biologics, cat #: 101), […] G418 (Alfa Aesar, cat #: J62671), 1 μg/mL Tetracycline (Teknova, cat #: T3320)) were detached with 0.25% trypsin-EDTA (Invitrogen, cat #: 25200-056). Tetracycline-free treatment medium (15 mL DMEM/F12 (1:1) 1× Pen/step, with 2% FBS, Tet-system approved (Clontech, cat #: 631106) were then added to mix, transferred into a 50 ml conical tube (Falcon, cat #: 21008-918,) and spun at 1300 rpm for 5 min. Pelleted cells were then re-suspended/washed with 50 mL of 1×DPBS (Invitrogen, cat #: 14190-136) 2 times and 50 mL treatment medium twice. HepAD38 cells were then re-suspended with 10 mL of treatment medium, syringed and counted. Wells of 96-well clear bottom TC plate (Corning, cat #: 3904,) were seeded at 50,000 cells/well in 180 μL of treatment medium, and 20 μL of either 10% DMSO (Sigma, cat #: D4540) as controls or a 10× solution of test compounds in 10% DMSO in treatment media was added for a final compound concentration starting at 10 μM, and plates were incubated in 5% CO2 incubator at 37° C. for 5 days.
# Subsequently viral load production was assayed by quantitative PCR (qPCR) of the HBV core sequence. PCR reaction mixture containing forward primers HBV-f 5′-CTGTGCCTTGGGTGGCTIT-3′ (IDT DNA), Reverse primers HBV-r 5′-[…]-3′ (IDT DNA), Fluorescent TaqMan™ Probes HBV-probe 5′-FAM/AGCTCCAAA/ZEN/[…]/3IABkFQ-3′ (IDT DNA), 10 μL/well of PerfeCTa® qPCR ToughMix® (Quanta Biosciences, Cat #: 95114-05K), and 6 μL/well of DEPC water (Alfa Aesar, cat #: J62087) was prepared. Four μL of supernatant was added to 16 μL of the reaction mixture in a qPCR plate (Applied Biosytems, Cat #: 4309849), sealed with a film (Applied Biosystems, Cat #: 4311971), centrifuged for a few seconds, and subsequently run on an Applied Biosystems VIIA7. The PCR mixture was incubated at 45° C. for 5 min, then 95° C. for 10 min, followed by 40 cycles of 10 seconds at 95° C. and 20 seconds at 60° C. Viral load was quantified against known HBV DNA standards by using ViiA™ 7 Software. Viral load in the supernatant from wells with treated cells were compared against viral load in supernatant from DMSO control wells (≥3 per plate). Cell viability assay was performed with CellTiter-Glo Luminescent Cell Viability Assay (Promega, cat #: G7573) with modification. Mixed appropriate amount of CellTiter-Glo (CTG) 1×DPBS in a 1:1 ratio, added 100 uL of the mixture to each well followed completely removal of all supernatant in each well without touching cell surface. Incubated the plate at room temperature for 10 min on an orbital shaker, and then read the plate with a plate reader (TECAN M1000 or Envision). EC50 or CC50 values were calculated through curve-fitting of the four-parameter nonlinear-logistic-regression model (GraphPad Prism or Dotmatics). CC50 values were all >10 μM.
# [1] = Hepatitis B virus, HePAD38, 120 h
Compound,EC50,EC50 [1]
"CN1C(C(=O)Nc2ccc(F)c(Cl)c2)CC(C(=O)NC2CCN(c3ccnc(Cl)c3)CC2)NS1(=O)=O (single isomer, unassigned) [1012-ISOMER-B, N3-(3-Chloro-4-fluoro-phenyl)-N5-[1-(2-chloro-4-pyridyl)-4-piperidyl]-2-methyl-1,1-dioxo-1,2,6-thiadiazinane-3,5-dicarboxamide]",50 to 100 nM,
Cc1nc(-c2ccccc2F)sc1C(NC(=O)C1CC(C(=O)Nc2ccc(F)c(Cl)c2)N(C)S(=O)(=O)N1)c1ccccc1 (stereo not drawn) [Compound 1101],,50 to 100 nM
COc1ccc(-c2ncc(CNC(=O)C3CC(C(=O)Nc4ccc(F)c(Cl)c4)N(C)S(=O)(=O)N3)s2)cc1 (stereo not drawn) [Compound 932],,< 50 nM
"CN1C(C(=O)Nc2ccc(F)c(Cl)c2)CC(C(=O)NC2CCN(C(=O)C3CC3)CC2)NS1(=O)=O (single isomer, unassigned) [Compound 854-ISOMER-B, N3-(3-chloro-4-fluoro-phenyl)-N5-[1-(cyclopropanecarbonyl)-4-piperidyl]-2-methyl-1,1-dioxo-1,2,6-thiadiazinane-3,5-dicarboxamide]",100 to 10000 nM,
"C[C@@H](NC(=O)C1CC(C(=O)Nc2ccc(F)c(Cl)c2)N(C)S(=O)(=O)N1)c1ccc(F)cc1 (single isomer, unassigned) [Compound 493-R]",,< 50 nM
"CN1C(C(=O)Nc2ccc(F)c(Cl)c2)CC(C(=O)NCc2cnc(-c3ccccc3Cl)s2)NS1(=O)=O (single isomer, unassigned) [Compound 912-ISOMER-B, N3-(3-chloro-4-fluoro-phenyl)-N5-[[2-(2-chlorophenyl)thiazol-5-yl]methyl]-2-methyl-1,1-dioxo-1,2,6-thiadiazinane-3,5-dicarboxamide]",< 50 nM,
CN1C(C(=O)Nc2ccc(F)c(Cl)c2)CC(C(=O)NCc2ccn(-c3ccccc3)n2)NS1(=O)=O (stereo not drawn) [Compound 991],,< 50 nM
C[C@H](NC(=O)C1CC(C(=O)Nc2ccc(F)c(Cl)c2)N(C)S(=O)(=O)N1)c1ccccc1 (stereo partly drawn) [Compound 755],,100 to 10000 nM
"CCN1CCC(Oc2ccc(-c3ncc(CNC(=O)C4CC(C(=O)Nc5ccc(F)c(Cl)c5)N(C)S(=O)(=O)N4)s3)cc2)CC1 (single isomer, unassigned) [Compound 921-ISOMER-B, N3-(3-chloro-4-fluoro-phenyl)-N5-[[2-[4-[(1-ethyl-4-piperidyl)oxy]phenyl]thiazol-5-yl]methyl]-2-methyl-1,1-dioxo-1,2,6-thiadiazinane-3,5-dicarboxamide]",50 to 100 nM,
"CN1C(C(=O)Nc2ccc(F)c(Cl)c2)CC(C(=O)NC2CCN(c3cc(CN4CCCCC4)ccn3)CC2)NS1(=O)=O (single isomer, unassigned) [Compound 975-ISOMER-A, N3-(3-chloro-4-fluoro-phenyl)-2-methyl-1,1-dioxo-N5-[1-[4-(1-piperidylmethyl)-2-pyridyl]-4-piperidyl]-1,2,6-thiadiazinane-3,5-dicarboxamide]",,< 50 nM
CCN1C(C(=O)Nc2ccc(F)c(Cl)c2)CC(C(=O)NC2CCN(C(=O)OC)CC2)NS1(=O)=O (stereo not drawn) [Compound 890],,< 50 nM
"COc1cccc(CNC(=O)C2CC(C(=O)Nc3ccc(F)c(Cl)c3)N(C)S(=O)(=O)N2)c1 (single isomer, unassigned) [Compound 721-ISOMER-A, N3-(3-chloro-4-fluoro-phenyl)-N5-[(3-methoxyphenyl)methyl]-2-methyl-1,1-dioxo-1,2,6-thiadiazinane-3,5-dicarboxamide]",,< 50 nM
Cc1ncc(CNC(=O)C2CC(C(=O)Nc3ccc(F)c(Cl)c3)N(C)S(=O)(=O)N2)s1 (stereo not drawn) [Compound 495],,< 50 nM
CCn1nccc1CNC(=O)C1CC(C(=O)Nc2ccc(F)c(Cl)c2)N(C)S(=O)(=O)N1 (stereo not drawn) [Compound 744],,50 to 100 nM
Cc1cn(-c2ccccc2)nc1CNC(=O)C1CC(C(=O)Nc2ccc(F)c(C#N)c2)N(C)S(=O)(=O)N1 (stereo not drawn) [Compound 1134],,< 50 nM
Cc1cnn(-c2ccccc2)c1CNC(=O)C1CC(C(=O)Nc2ccc(F)c(Cl)c2)N(C)S(=O)(=O)N1 (stereo not drawn) [Compound 1104],,< 50 nM
"Cc1nc(-c2ccccc2F)sc1[C@@H](NC(=O)C1CC(C(=O)Nc2ccc(F)c(Cl)c2)N(C)S(=O)(=O)N1)c1ccccc1 (single isomer, unassigned; isomer-d) [1101-ISOMER-D]",100 to 10000 nM,
"CN1C(C(=O)Nc2ccc(F)c(Cl)c2)CC(C(=O)NCc2ncc(-c3ccc(F)cc3)s2)NS1(=O)=O (single isomer, unassigned) [1153-ISOMER-B, N3-(3-chloro-4-fluoro-phenyl)-N5-[[5-(4-fluorophenyl)thiazol-2-yl]methyl]-2-methyl-1,1-dioxo-1,2,6-thiadiazinane-3,5-dicarboxamide]",100 to 10000 nM,
Cc1sc(N2CCC(NC(=O)C3CC(C(=O)Nc4ccc(F)c(Cl)c4)N(C)S(=O)(=O)N3)CC2)nc1C(=O)N(C)C (stereo not drawn) [Compound 1093],,< 50 nM
CN1C(C(=O)Nc2ccc(F)c(Cl)c2)CC(C(=O)Nc2ccc3c(c2)OCCO3)NS1(=O)=O (stereo not drawn) [Compound 734],,50 to 100 nM
COc1cccc(CNC(=O)C2CC(C(=O)Nc3ccc(F)c(C#N)c3)N(C)S(=O)(=O)N2)c1 (stereo not drawn) [Compound 835],,50 to 100 nM
Cc1csc(CNC(=O)C2CC(C(=O)Nc3ccc(F)c(C#N)c3)N(C)S(=O)(=O)N2)n1 (stereo not drawn) [Compound 828],,100 to 10000 nM
"C[C@@H](NC(=O)C1CC(C(=O)Nc2ccc(F)c(Cl)c2)N(C)S(=O)(=O)N1)c1ccccc1 (single isomer, unassigned) [Compound 719-ISOMER-A]",,< 50 nM
"CN1C(C(=O)Nc2ccc(F)c(Cl)c2)CC(C(=O)NC2CCN(c3cc(Cl)ccn3)CC2)NS1(=O)=O (single isomer, unassigned) [Compound 974-ISOMER-A, N3-(3-chloro-4-fluoro-phenyl)-N5-[1-(4-chloro-2-pyridyl)-4-piperidyl]-2-methyl-1,1-dioxo-1,2,6-thiadiazinane-3,5-dicarboxamide]",,< 50 nM
"Cc1cn(-c2ccccc2F)nc1CNC(=O)C1CC(C(=O)Nc2ccc(F)c(Cl)c2)N(C)S(=O)(=O)N1 (single isomer, unassigned) [1142-ISOMER-B, N3-(3-chloro-4-fluoro-phenyl)-N5-[[1-(2-fluorophenyl)-4-methyl-pyrazol-3-yl]methyl]-2-methyl-1,1-dioxo-1,2,6-thiadiazinane-3,5-dicarboxamide]",100 to 10000 nM,
"CN1C(C(=O)Nc2ccc(F)c(Cl)c2)CC(C(=O)NCc2ccc(Cl)cc2)NS1(=O)=O (single isomer, unassigned) [Compound 729-ISOMER-B, N3-(3-chloro-4-fluoro-phenyl)-N5-[(4-chlorophenyl)methyl]-2-methyl-1,1-dioxo-1,2,6-thiadiazinane-3,5-dicarboxamide]",100 to 10000 nM,
"CN1C(C(=O)Nc2ccc(F)c(Cl)c2)CC(C(=O)NC2CCN(c3ccnc(Br)c3)CC2)NS1(=O)=O (single isomer, unassigned) [1036-ISOMER-A, N5-[1-(2-bromo-4-pyridyl)-4-piperidyl]-N3-(3-chloro-4-fluoro-phenyl)-2-methyl-1,1-dioxo-1,2,6-thiadiazinane-3,5-dicarboxamide]",,< 50 nM
"CN1C(C(=O)Nc2ccc(F)c(Cl)c2)CC(C(=O)NCc2nc3ccccc3s2)NS1(=O)=O (single isomer, unassigned) [Compound 689-ISOMER-A, N5-(1,3-benzothiazol-2-ylmethyl)-N3-(3-chloro-4-fluoro-phenyl)-2-methyl-1,1-dioxo-1,2,6-thiadiazinane-3,5-dicarboxamide]",,100 to 10000 nM
COc1ccnc(N2CCC(NC(=O)C3CC(C(=O)Nc4ccc(F)c(Cl)c4)N(C)S(=O)(=O)N3)CC2)c1 (stereo not drawn) [Compound 972],,< 50 nM
CN1C(C(=O)Nc2ccc(F)c(Cl)c2)CC(C(=O)NC2CC3CCC2C3)NS1(=O)=O (stereo not drawn) [Compound 858],,100 to 10000 nM

# — patent US20230075856A1, “CYCLIC SULFAMIDE COMPOUNDS FOR TREATMENT OF HBV” (Assembly Biosciences, Inc., priority 2018, published 2023)
